{"source": "patent US20260102460A1", "about": "“NOVEL COMBINATIONS OF ANTIBIOTICS AND NON-ANTIBIOTIC DRUGS EFFECTIVE IN VIVO AGAINST GRAM-POSITIVE BACTERIA, IN PARTICULAR METHICILLIN-RESISTANT S. AUREUS (MRSA)” (EUROPEAN MOLECULAR BIOLOGY LABORATORY, priority 2022, published 2026)", "key": {"S. aureus DSM 20231": {"system": "S. aureus DSM 20231", "assay": "Adjuvant (extended non-antibiotic) combination screen", "format": "cell-based, Staphylococcus aureus", "details": "S. aureus DSM 20231; original and extended non-antibiotic screen (FIG. 4d); 4×4 dose matrix", "experimental": "(§1) MICs were tested in all strains for the main screen. Drugs were two-fold serially diluted in 11 concentrations, and 32 no-drug control wells were included in each plate. Experiments were conducted in 384-well plates (ref. 781271 by Greiner BioOne), with a total volume of 30 μl for S. aureus and B. subtilis and 55 μl for S. pneumoniae. Volumes were optimized for each strain to achieve good dynamic range for growth and minimize risk of cross-contamination between wells. Plates were inoculated with a starting optical density at 595 nm (OD595 nm) of 0.01 from an overnight culture. All liquid handling was performed using a Biomek FX liquid handler (Beckman Coulter). Plates were sealed with breathable membranes and incubated at 37° C. OD595 nm was measured every 30 minutes for 14 hours. The MIC was considered as the first concentration at which growth was inhibited. Experiments were conducted in biological duplicates. For the adjuvant screen, antibiotics were tested in S. aureus DSM 20231 at the same concentrations as for the main screen. Non-antibiotics concentrations were selected to fall within therapeutic ranges.\n(§2) 62 drugs, hereafter designated as recipients, were arrayed in 384-well plates (ref. 781271 by Greiner BioOne) in three two-fold serial dilutions and two technical replicates. Concentrations were selected according to MICs, with the highest concentration corresponding to the MIC, and the intermediate and lowest concentration corresponding to ½ and ¼ MIC, respectively. Plates were kept frozen and defrosted upon each experimental run, when the same 62 drugs and in the same three concentrations were added as donor drugs (one drug at one concentration for each recipient plate). A few drugs were screened only as donors: the combinations co-amoxiclav and cotrimoxazole in B. subtilis and S. aureus DSM 20231; co-amoxiclav, clavulanic acid, pseudomonic acid and cefuroxime in S. aureus Newman. All donor drugs were tested in two biological replicates. Control wells were included in each plate (six no-drug wells, three plain medium wells and three wells containing only the donor drug). After the addition of donor drugs, plates were inoculated with cells. Handling, inoculation, growth conditions, plate incubation and OD595 nm measurements were performed as for the MIC determination.\nFor the adjuvant screen, 44 non-antibiotic drugs were tested against the same recipient drugs of the main screen for S. aureus DSM 20231.\nThe inventors selected 44 drugs to include pharmaceuticals that can be co-administered with antibiotics in S. aureus infections or non-antibiotics with previously reported antibacterial activity against S. aureus. […] Interactions were scored and benchmarked as for the main screen (Methods)."}, "S. aureus (two strains)": {"system": "S. aureus (two strains)", "assay": "High-throughput screen of drug combinations (4×4 broth microdilution checkerboard, Bliss scores)", "format": "cell-based, Staphylococcus aureus", "details": "for drug-drug interaction (synergy / antagonism, Bliss model): S. aureus Newman and DSM 20231, fitness from OD595nm at 8 h, synergy = first quartile of Bliss scores <−0.1, antagonism = third quartile >0.1, FDR <0.05", "experimental": "as §1, §2"}, "[1]": {"system": "multi-drug resistant E. coli isolates", "details": "vanillin paired with spectinomycin; Gram-negative pathogenic and multi-drug resistant E. coli isolates; cited from earlier work"}, "[2]": {"system": "S. aureus Newman dltABCD and tagG IPTG-inducible knockdown mutants", "assay": "Gentamicin and nisin MIC in dltABCD and tagG knockdown mutants", "format": "cell-based, Staphylococcus aureus", "details": "dltABCD operon and tagG knockdown, 500 μM IPTG, versus control strain MM76", "from_the_text": "A two-plasmid CRISPR interference system was used to knock down gene expression of selected genes in S. aureus Newman. In these strains, dcas is expressed from an IPTG-inducible promoter on plasmid pLOW, while sgRNAs are expressed from a constitute promoter on a plasmid derived from pCG248. The sgRNA-target sequences were […] (SEQ ID NO. 1) for dltABCD and […] (SEQ ID NO. 2) for tagG, and […] (SEQ ID NO. 3) for the non-target control MM76.\nFor gentamicin and nisin MIC measurements, dltABCD and tagG IPTG-inducible knockdown mutants (Methods) were grown in two-fold dilutions of nisin and gentamicin, in presence of erythromycin (5 μg/ml) and chloramphenicol (10 μg/ml) for plasmid maintenance. IPTG (500 μM) was used to achieve maximal knockdown of the gene targeted. The parent S. aureus Newman and the control strain MM76 (Methods) were included in all experiments, and experiments were conducted in four biological replicates, in 384-well plates (ref. 781271 by Greiner BioOne). For each plate, the inventors identified the time point where the control strain MM76 (in presence of erythromycin, chloramphenicol and IPTG at the above-mentioned concentrations) reached plateau, defined as the first time point before no increase was detected in log 10 (OD595 nm) values of two consecutive time points. […]"}, "MDR S. aureus isolates": {"system": "MDR S. aureus isolates", "details": "Mueller-Hinton broth (MHB), 22 h; cited from earlier work"}}, "note": "“Also recorded” adds a separate entry of the source."}
{"compound": "CC(=O)Oc1ccccc1C(=O)O", "note": "[acetylsalicylic acid]", "values": [{"measurement": "interactions between non-antibiotic drug and antibiotics (synergy / antagonism, Bliss model)", "setting": "S. aureus DSM 20231", "value": "synergy with cefuroxime; also recorded: antagonisms with ciprofloxacin, oxacillin and azithromycin"}]}
{"compound": "O=C(O)[C@H]1/C(=C/CO)O[C@@H]2CC(=O)N21", "note": "[clavulanic acid]", "values": [{"measurement": "drug-drug interaction (synergy / antagonism, Bliss model)", "setting": "S. aureus (two strains)", "value": "a number of synergies with other drugs"}]}
{"compound": "CCN(CC)CCOc1ccc(C(=C(Cl)c2ccccc2)c2ccccc2)cc1", "note": "[clomifene]", "values": [{"measurement": "interactions between non-antibiotic drug and antibiotics (synergy / antagonism, Bliss model)", "setting": "S. aureus DSM 20231", "value": "synergies with cell-wall acting drugs; also recorded: antagonism with streptomycin"}]}
{"compound": "C[C@@H]1O[C@@H]1P(=O)(O)O", "note": "[fosfomycin]", "values": [{"measurement": "drug-drug interaction (synergy / antagonism, Bliss model)", "setting": "S. aureus (two strains)", "value": "strongly synergized with a diverse range of protein-synthesis inhibitors (lincosamides, oxazolidinones, streptomycin); also recorded: synergized with almost all classes of translation inhibitors, including macrolides, tetracyclines and spectinomycin"}]}
{"compound": "CN(C)C(=O)C(CCN1CCC(O)(c2ccc(Cl)cc2)CC1)(c1ccccc1)c1ccccc1", "note": "[loperamide]", "values": [{"measurement": "drug-drug interaction (synergy / antagonism, Bliss model)", "setting": "S. aureus (two strains)", "value": "broad antagonism with macrolides"}, {"measurement": "rank by number of interactions with antibiotics", "setting": "S. aureus (two strains); the inventors' screen", "value": "highest number of interactions with antibiotics"}]}
{"compound": "COc1cc(Cc2cnc(N)nc2N)cc(OC)c1OC", "note": "[trimethoprim]", "values": [{"measurement": "drug-drug interaction (synergy / antagonism, Bliss model)", "setting": "S. aureus (two strains)", "value": "a number of synergies with other drugs"}]}
{"compound": "COc1cc(C=O)ccc1O", "note": "[vanillin]", "values": [{"measurement": "inhibitory effect on growth", "setting": "[1]", "value": "surprisingly strong inhibitory effect on the growth"}]}
{"compound": "gentamicin", "values": [{"measurement": "change of MIC in CRISPRi knockdown mutants", "setting": "[2]", "value": "decrease"}]}
{"compound": "nisin", "values": [{"measurement": "change of MIC in CRISPRi knockdown mutants", "setting": "[2]", "value": "decrease"}]}
{"compound": "teicoplanin", "values": [{"measurement": "killing by single drug", "setting": "MDR S. aureus isolates", "value": "complete killing"}]}
